In patent US20090182055A1, “FUNGICIDAL AGENT CONTAINING N-CHLOROTAURINE AND USE THEREOF” (priority 2000, published 2009):

Assays:
[1] = treatment of rhinosinusitis patients by nasal catheter rinsing; format: in vivo, human
Excerpt: Treatments with traditional fungicidal agents have on the contrary previously led to no success.
The importance of the agent lies, among other things, in the fact that, in the case of the mucus tissue polyps occurring in rhinosinusitis, regression could be observed so that the previously successful standard therapy, namely operative removal, can be avoided by the use of the agent according to the invention.
A person suffers from chronic rhinosinusitis with clear swelling of the mucus membranes in both maxillary sinuses with retention of secretion on the left, in ethmoid bone cells, sphenoidal sinus, and in the left frontal sinus. Labored nasal respiration. For 2 1/2 months increasing headaches at the back of the head, no improvement on antibiotic therapy.
The treatment with 1% NCT-Na took place over a total of 4 weeks, 3 times weekly, and included 12 treatments in all. Each time a 10-ml NCT-Na solution was applied by means of a nasal catheter (YAMIK) over a period of time of 12 minutes. Thereafter the rinsing solution was suctioned off.
patient suffered from chronic rhinosinusitis for ca. 1 year with swelling of the mucus membranes and increased secretion in the nasal cavity and all its adjacent cavities, strong polyposis and loss of the sense of smell.

[2] = treatment of patients with otitis externa with saturated strips; format: in vivo, human; details: changed daily
Procedure: A group of 10 patients who suffered from otitis externa with affliction of the auditory canal were treated. For treatment, 12 cm long strips (tampons by Rauscher) were placed into the external auditory canal. The test group (5 persons) was treated with strips which were saturated with 1-ml 1% NCT-Na, the control group (5 persons) with strips which were saturated with 1-ml otosporin (content per ml: 10,000 IU polymyxin B sulfate, 3.5 mg neomycin as neomycin sulfate, 10 mg hydrocortisone).
The treatment was done over 5 days. The strips were changed daily.

[3] = test system: aspergillus, penicillum, fusarium, and candida in nasal mucus; assay: kill-off time in vitro of fungi in nasal mucus; format: cell-based; details: 1% NCT-Na added to nasal mucus (diluted 1:10) of rhinosinusitis
Procedure: In the case of rhinosinusitis various species of fungus were found in the nasal mucus, e.g., aspergillus, penicillum, fusarium, and candida. If (diluted 1:10) 1% NCT-Na is added to this nasal mucus, then the kill-off time in vitro is less than 30 minutes.

[4] = treatment of patients with ulcus cruris with saturated swabs; format: in vivo, human; details: Example 4, 1% NCT-Na versus 1% chloramine T control group
Procedure: A group of 25 patients who suffered from ulcus cruris were treated. The treatment was done with swabs which were saturated with an aqueous solution of 1% NCT-Na (test group, 14 patients) or 1% chloramine T (control group, 11 patients) and applied directly to the ulcers and left there. The treatment was done over 5-14 days. The swabs were changed twice daily.

[5] = tolerability in vivo at various application sites; details: eye, middle ear, outer ear, skin ulcers, oral cavity, bladder

For O=S(=O)(O)CCNCl [NCT-Na, N-chlorotaurine], the formation of secretion ([1]; Example 1, 1% NCT-Na, after 7 treatments) was “strong decline”, the nasal respiration ([1]; Example 1, 1% NCT-Na, after 9 treatments) was “clearly improved” and the pains ([1]; Example 1, person, 1% NCT-Na 10 ml, 3 times weekly, after the second application) was “complete remission of the pains”. For the same molecule, the polyposis nasi ([1]; Example 2, 1% NCT-Na, at the end of the treatments (12 treatments, 4 weeks)) was “unambiguous regression”, the sense of smell ([1]; Example 2, patient, 1% NCT-Na 10 ml, 3 times weekly, after the sixth application) was “substantial restoration” and the “symptoms of rhinosinusitis (pains, head pressure, loss of sense of smell, increased secretion, polyp formation)” value ([1]; trials with rhinosinusitis patients, treatment of internal nasal surfaces with NCT-Na solution) was “improved substantially”. The tolerability ([2]; Example 3, strips saturated with 1 ml 1% NCT-Na in external auditory canal, 5 days) was “well tolerated”, the “period until healing, on average” value ([2]; Example 3, strips saturated with 1 ml test solution) was 3 days and the “kill-off time in vitro” value [3] was “less than 30 minutes”. The “pains after application of the solution” value [4] was “significantly less pains” and the tolerability in vivo [5] was “tolerated outstandingly”.
